Results: patent publication US9045466B2, “Amidine compound or salt thereof” (priority 2011, dated 2015)
Values after ≈ are worked out from the molar mass of the structure shown. Where a name gives a salt, the structure may show the parent alone. Read-outs that look alike come from different tables or passages of the source.

Tested on: Trichophyton rubrum NBRC 5467
Experiment: Fungal susceptibility test, broth microdilution method (MIC)
Assay type: cell-based
Conditions: NBRC5467, 96 h
Method: The fungal susceptibility tests on test substances were conducted by the broth microdilution method equivalent to Clinical and Laboratory Standards Institute method. The medium used in the susceptibility tests was RPMI1640 adjusted to pH 7.0 with 0.165 mol/L morpholinepropanesulfonic acid (MOPS) and 50% sodium hydroxide (RPMI/MOPS). Each test substance was dissolved in DMSO and serially diluted in 2-fold increments with DMSO on a 96-well microplate. Then, the dilutions were dispensed by 1 μL to a 96-well microplate. Candida albicans TIMM 1623 cultured overnight at 35° C. in Sabouraud's agar medium was suspended in sterile saline. The number of cells was counted under a biological microscope, and the fungal suspension was diluted with RPMI/MOPS to prepare the inoculum solution (approximately 1×10^3 cells/mL). Alternatively, Candida albicans TIMM 1623 stored at −80° C. was diluted with RPMI/MOPS to prepare the inoculum solution (approximately 1×10^3 CFU/mL). Aspergillus fumigatus TIMM 0063 stored at 5° C. was diluted with RPMI/MOPS to prepare the inoculum solution (approximately 1×10^4 CFU/mL). Trichophyton rubrum NBRC 5467 stored at 5° C. or −80° C. was diluted with RPMI/MOPS to prepare the inoculum solution (approximately 2×10^3 CFU/mL). The 199 μL of inoculum solution was dispensed to each well to prepare the microplate containing the designated concentrations of test substance, medium and fungal cells. Candida albicans and Aspergillus fumigatus were cultured at 35° C. for 2 days. Trichophyton rubrum was cultured at 35° C. for 4 days. After the completion of culture, MIC was determined by visual observation. The MICs of Candida albicans and Aspergillus fumigatus were set to the lowest concentration at which approximately 50% growth inhibition was seen, when compared with a growth control without the addition of the test substance. The MIC of Trichophyton rubrum was set to the lowest concentration at which approximately 80% growth inhibition was seen, when compared with a growth control without the addition of the test substance.

[1] = RPMI/MOPS pH 7.0, 35° C. for 4 days, visual, lowest concentration with approximately 80% growth inhibition, read-out: MIC (μg/mL) T. rubrum NBRC5467
[2] = pH 7, read-out: MIC (μg/mL) T. rubrum NBRC5467

MIC [1] [µg/mL] | Structure (SMILES) | MIC [2] [µg/mL]
0.125 (≈ 0.318 µM) | CN/C=N/c1cc(C)c(Cc2nc(-c3ccc(C(=O)NC)cc3)cs2)cc1C [Example 95, 4-[2-(2,5-Dimethyl-4-{[(E)-(methylamino)methylidene]amino}benzyl)-1,3-thiazol-4-yl]-N-methylbenzamide] | –
– | CCN(C)/C=N/c1cc(C)c(Cc2nc(C(=O)c3ccccc3)cs2)cc1C [Example 19, N′-(2,5-Dimethyl-4-{[4-(phenylcarbonyl)-1,3-thiazol-2-yl]methyl}phenyl)-N-ethyl-N-methylimidoformamide dihydrochloride] | 0.0156
0.0156 (≈ 0.0391 µM) | CCN(C)/C=N/c1cc(C)c(Cc2nc(C(=O)NC3CCCC3)cs2)cc1C [Example 74, N-Cyclopentyl-2-[4-({(E)-[ethyl(methyl)amino]methylidene}amino)-2,5-dimethylbenzyl]-1,3-thiazole-4-carboxamide] | –
– | CCN(C)/C=N/c1cc(C)c(Cc2nc(-c3ccn(C)c(=O)c3)cs2)cc1C [Example 67, N′-(2,5-Dimethyl-4-{[4-(1-methyl-2-oxo-1,2-dihydropyridin-4-yl)-1,3-thiazol-2-yl]methyl}phenyl)-N-ethyl-N-methylimidoformamide dihydrochloride] | 0.0625
– | CCN(C)/C=N/c1cc(C)c(Cc2nc(-c3cncc(F)c3)cs2)cc1C [Example 21, N-Ethyl-N′-(4-{[4-(5-fluoropyridin-3-yl)-1,3-thiazol-2-yl]methyl}-2,5-dimethylphenyl)-N-methylimidoformamide trihydrochloride] | 0.0156
– | CCN(C)/C=N/c1cc(C)c(Cc2nc(C(=O)NC(C)(C)C(F)(F)F)cs2)cc1C [Example 109, 2-[4-({(E)-[Ethyl(methyl)amino]methylidene}amino)-2,5-dimethylbenzyl]-N-(1,1,1-trifluoro-2-methylpropan-2-yl)-1,3-thiazole-4-carboxamide hydrochloride] | 0.0039
0.0078 (≈ 0.0185 µM) | CCN(C)/C=N/c1cc(C)c(Cc2nc(-c3ccc(C(=O)NC)cc3)cs2)cc1C [Example 41, 4-{2-[4-({(E)-[Ethyl(methyl)amino]methylidene}amino)-2,5-dimethylbenzyl]-1,3-thiazol-4-yl}-N-methylbenzamide] | –
0.0039 | CCN(C)/C=N/c1cc(C)c(Cc2nc(-c3ccc(S(C)(=O)=O)cc3)cs2)cc1C [Example 23, N′-[2,5-Dimethyl-4-{4-[4-(methylsulfonyl)phenyl]-1,3-thiazol-2-yl}methyl)phenyl]-N-ethyl-N-methylimidoformamide dihydrochloride] | –
– | CCN(C)/C=N/c1cc(C)c(Cc2nc(C(=O)NCc3ccccc3)cs2)cc1C [Example 44, N-Benzyl-2-[4-({(E)-[ethyl(methyl)amino]methylidene}amino)-2,5-dimethylbenzyl]-1,3-thiazole-4-carboxamide dihydrochloride] | 0.0625
0.0039 (≈ 0.0113 µM) | CCN(C)/C=N/c1cc(C)c(Cc2nc(OC(C)C)cs2)cc1C [Example 32, N′-(2,5-Dimethyl-4-{[4-(propan-2-yloxy)-1,3-thiazol-2-yl]methyl}phenyl)-N-ethyl-N-methylimidoformamide] | –
– | CCOC(=O)c1csc(Cc2cc(C)c(/N=C/N(C)CC)cc2C)n1 [Example 35, Ethyl 2-[4-({(E)-[ethyl(methyl)amino]methylidene}amino)-2,5-dimethylbenzyl]-1,3-thiazole-4-carboxylate] | 0.0313 (≈ 0.0871 µM)
– | CCN(C)/C=N/c1ccc(Cc2nc(-c3ccc(Cl)cc3)cs2)cc1 [Example 51, N′-(4-{[4-(4-Chlorophenyl)-1,3-thiazol-2-yl]methyl}phenyl)-N-ethyl-N-methylimidoformamide hydrochloride] | 0.25
– | CCN(C)/C=N/c1cc(C)c(Cc2nc(COC(C)=O)cs2)cc1C [Example 34, {2-[4-({(E)-[Ethyl(methyl)amino]methylidene}amino)-2,5-dimethylbenzyl]-1,3-thiazol-4-yl}methyl acetate dihydrochloride] | 0.0313
0.0039 (≈ 0.00974 µM) | CCN(C)/C=N/c1cc(C)c(Cc2nc(C(=O)NC(C)(C)CC)cs2)cc1C [Example 86, 2-[4-({(E)-[Ethyl(methyl)amino]methylidene}amino)-2,5-dimethylbenzyl]-N-(2-methylbutan-2-yl)-1,3-thiazole-4-carboxamide] | –
0.25 (≈ 0.593 µM) | COC(=O)CN(C)/C=N/c1cc(C)c(Cc2nc(-c3ccc(C)cc3)cs2)cc1C [Example 7, Methyl N-{(E)-[(2,5-dimethyl-4-{[4-(4-methylphenyl)-1,3-thiazol-2-yl]methyl}phenyl)imino]methyl}-N-methylglycinate] | –
– | CCN(C)/C=N/c1cc(C)c(Cc2nc(-c3ccc(C)cc3)cs2)nc1C [Example 47, N′-(2,5-Dimethyl-6-{[4-(4-methylphenyl)-1,3-thiazol-2-yl]methyl}pyridin-3-yl)-N-ethyl-N-methylimidoformamide dihydrochloride] | 0.0313
0.0156 (≈ 0.0366 µM) | CCN(C)/C=N/c1cc(C)c(Cc2nc(C3CCC(C(=O)NC)CC3)cs2)cc1C (centres unmarked) [Example 87, 4-{2-[4-({(E)-[Ethyl(methyl)amino]methylidene}amino)-2,5-dimethylbenzyl]-1,3-thiazol-4-yl}-N-methylcyclohexanecarboxamide] | –
– | CCN(C)/C=N/c1cc(C)c(Cc2nc(NC(=O)OC3CCCCC3)cs2)cc1C [Example 97, Cyclohexyl {2-[4-({(E)-[ethyl(methyl)amino]methylidene}amino)-2,5-dimethylbenzyl]-1,3-thiazol-4-yl}carbamate hydrochloride] | 0.0078
– | CCN(C)/C=N/c1cc(C)c(Cc2nc(C3CC3)cs2)cc1C [Example 45, N′-{4-[(4-Cyclopropyl-1,3-thiazol-2-yl)methyl]-2,5-dimethylphenyl}-N-ethyl-N-methylimidoformamide dihydrochloride] | 0.0313
0.0078 (≈ 0.0201 µM) | CCN(C)/C=N/c1cc(C)c(Cc2nc(NC(=O)OC(C)C)cs2)cc1C [Example 102, Propan-2-yl {2-[4-({(E)-[ethyl(methyl)amino]methylidene}amino)-2,5-dimethylbenzyl]-1,3-thiazol-4-yl}carbamate] | –
– | CCOC(=O)Nc1csc(Cc2cc(C)c(/N=C/N(C)CC)cc2C)n1 [Example 31, Ethyl {2-[4-({(E)-[ethyl(methyl)amino]methylidene}amino)-2,5-dimethylbenzyl]-1,3-thiazol-4-yl}carbamate dihydrochloride] | 0.0078
– | CCN(C)/C=N/c1cc(C)c(Cc2nc(CS(=O)(=O)c3ccc(C)cc3)cs2)cc1C [Example 30, N′-{2,5-Dimethyl-4-[(4-{[(4-methylphenyl)sulfonyl]methyl}-1,3-thiazol-2-yl)methyl]phenyl}-N-ethyl-N-methylimidoformamide dihydrochloride] | 0.0625
0.0078 (≈ 0.0182 µM) | CCN(C)/C=N/c1cc(C)c(Cc2nc(C(O)c3ccc(Cl)cc3)cs2)cc1C (centres unmarked) [Example 38, N′-[4-({4-[(4-Chlorophenyl)(hydroxy)methyl]-1,3-thiazol-2-yl}methyl)-2,5-dimethylphenyl]-N-ethyl-N-methylimidoformamide] | –
– | CCN/C=N/c1cc(C)c(Cc2nc(-c3cnc(C)cn3)cs2)cc1C [Example 105, N′-(2,5-Dimethyl-4-{[4-(5-methylpyrazin-2-yl)-1,3-thiazol-2-yl]methyl}phenyl)-N-ethylimidoformamide hydrochloride] | 0.0313
– | CCN(C)/C=N/c1cc(C)c(Cc2nc(C(=O)N(C)C3CCCCC3)cs2)cc1C [Example 71, N-Cyclohexyl-2-[4-({(E)-[ethyl(methyl)amino]methylidene}amino)-2,5-dimethylbenzyl]-N-methyl-1,3-thiazole-4-carboxamide hydrochloride] | 0.0156
0.0625 (≈ 0.149 µM) | CCN(C)/C=N/c1cc(C)c(Cc2nc(-c3ccc4c(c3)CNC4=O)cs2)cc1C [Example 89, N′-(2,5-Dimethyl-4-{[4-(1-oxo-2,3-dihydro-1H-isoindol-5-yl)-1,3-thiazol-2-yl]methyl}phenyl)-N-ethyl-N-methylimidoformamide] | –
– | CCN(C)/C=N/c1cc(C)c(Cc2nc(-c3ccccc3)c(C(=O)c3ccccc3)s2)cc1C [Example 25, N′-(2,5-Dimethyl-4-{[4-phenyl-5-(phenylcarbonyl)-1,3-thiazol-2-yl]methyl}phenyl)-N-ethyl-N-methylimidoformamide dihydrochloride] | 0.0313
0.0156 (≈ 0.042 µM) | CCN(C)/C=N/c1cc(C)c(Cc2nc(C3CCOCC3)cs2)cc1C [Example 81, N′-(2,5-Dimethyl-4-{[4-(tetrahydro-2H-pyran-4-yl)-1,3-thiazol-2-yl]methyl}phenyl)-N-ethyl-N-methylimidoformamide] | –
0.0625 (≈ 0.14 µM) | CCN(C)/C=N/c1cc(C)c(Cc2nc(-c3ccc(C(=O)N4CCC4)cc3)cs2)cc1C [Example 101, N′-[4-({4-[4-(Azetidin-1-ylcarbonyl)phenyl]-1,3-thiazol-2-yl}methyl)-2,5-dimethylphenyl]-N-ethyl-N-methylimidoformamide] | –
